Molecules are shown by their SMILES.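 All cell lines were grown in 96-well plates and treated with compound for 48 hours. TGI: total growth inhibition.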 A value given as a limit tells only on which side of the number the result lay.

Test systems include MCF7 breast; OVCAR-5 ovarian; OVCAR-4 ovarian; U251 CNS; UACC-257 melanoma; NCI-H23 lung; MDA-MB-435; K-562 leukemia; T-47D breast; MOLT-4 leukemia; CAKI-1 renal; MDA-MB-231 breast; PC-3 prostate; CCRF-CEM leukemia; BT-549 breast; SNB-75 CNS; HCT-15 colon; COLO 205 colon; OVCAR-8 ovarian.
Common to all, as to test: NCI anticancer screen, dose series, 48 h

With `Brc1ccc(C2(N3CCCCC3)CCCCC2)s1`, the TGI in the assay with MCF7 breast was above 100 µM; with OVCAR-5 ovarian, above 100 µM; in the assay with OVCAR-4 ovarian it was above 100 µM; in the assay with U251 CNS, above 100 µM; in the assay with UACC-257 melanoma, 94.6 µM; in the assay on NCI-H23 lung it was above 100 µM. Besides, the TGI in the assay with MDA-MB-435 was 73.3 µM; in the assay with K-562 leukemia, 52.5 µM; in the assay on T-47D breast it was 49.5 µM; with MOLT-4 leukemia it was 34.2 µM; in the assay with CAKI-1 renal it was above 100 µM; in the assay on MDA-MB-231 breast it was above 100 µM. Further, the values for the TGI in the assay on PC-3 prostate, in the assay on CCRF-CEM leukemia and in the assay on BT-549 breast were above 100 µM, 39.2 µM and above 100 µM, respectively.

Consider `C/C(O)=C/c1nc2sc(C)c(C)c2c(=O)s1`, for which the TGI in the assay with SNB-75 CNS, in the assay with MCF7 breast, in the assay with HCT-15 colon, in the assay with OVCAR-5 ovarian, in the assay on OVCAR-4 ovarian and in the assay on U251 CNS was above 100 µM each time. The TGI in the assay on UACC-257 melanoma, in the assay with NCI-H23 lung, with MDA-MB-435, in the assay on K-562 leukemia, with T-47D breast and in the assay with COLO 205 colon was above 100 µM throughout. For the same compound, the TGI in the assay on CAKI-1 renal was above 100 µM; with OVCAR-8 ovarian, above 100 µM; in the assay on MDA-MB-231 breast it was above 100 µM; with PC-3 prostate, 69.5 µM; in the assay on CCRF-CEM leukemia, above 100 µM; in the assay on BT-549 breast it was above 100 µM.

As to `CCC/C(Cl)=N/OC(=O)Nc1cccc(F)c1`, the TGI in the assay on SNB-75 CNS worked out at 28.3 µM; with MCF7 breast it was 8.85 µM; with HCT-15 colon, 4.1 µM; in the assay with OVCAR-5 ovarian, 36.3 µM; in the assay on OVCAR-4 ovarian, 25.4 µM; in the assay on U251 CNS it was 32.6 µM. Further, the TGI amounted to 28 µM in the assay on UACC-257 melanoma; 38.2 µM in the assay on NCI-H23 lung; 24.8 µM in the assay with MDA-MB-435; 8.87 µM in the assay on K-562 leukemia; 6.34 µM with T-47D breast; 3.98 µM in the assay on COLO 205 colon. In addition, the TGI in the assay with MOLT-4 leukemia was determined as 5.55 µM; in the assay on CAKI-1 renal it was 7.77 µM; in the assay with OVCAR-8 ovarian it was 37.4 µM; with MDA-MB-231 breast, 27.7 µM; with PC-3 prostate, 30.7 µM; in the assay on BT-549 breast, 10.4 µM.

Take `Nc1nc(SCC(=O)c2ccccc2)nc2nc3c(c(-c4ccccc4)c12)CCCC3`: the TGI with SNB-75 CNS was 78.6 µM; with MCF7 breast, above 100 µM; with HCT-15 colon, above 100 µM; in the assay with OVCAR-5 ovarian, above 100 µM; with OVCAR-4 ovarian, 66.4 µM; in the assay on U251 CNS, above 100 µM. Further, the TGI with UACC-257 melanoma, in the assay with NCI-H23 lung, in the assay on MDA-MB-435, in the assay with K-562 leukemia, in the assay with T-47D breast and with MOLT-4 leukemia was above 100 µM throughout. Further, the TGI is above 100 µM in the assay with CAKI-1 renal; 89 µM in the assay on OVCAR-8 ovarian; above 100 µM in the assay with MDA-MB-231 breast; above 100 µM in the assay with CCRF-CEM leukemia; above 100 µM with BT-549 breast.

For the compound `CN(C)c1ccc(C=Nc2ccc(-c3nc4ccccc4o3)cc2)cc1`, the TGI with SNB-75 CNS, in the assay with MCF7 breast, in the assay on HCT-15 colon, in the assay with OVCAR-5 ovarian, in the assay with OVCAR-4 ovarian and in the assay with U251 CNS was above 100 µM each time. The TGI with UACC-257 melanoma is 72.5 µM; in the assay on NCI-H23 lung it was above 100 µM; in the assay with MDA-MB-435, above 100 µM; in the assay on K-562 leukemia it was above 100 µM; with T-47D breast, 58.3 µM; in the assay with COLO 205 colon, above 100 µM. For the same compound, the TGI was 78.8 µM in the assay on MOLT-4 leukemia; above 100 µM in the assay on OVCAR-8 ovarian; above 100 µM with MDA-MB-231 breast; 97.9 µM in the assay on PC-3 prostate; above 100 µM with BT-549 breast.

`CC1=NN(c2ccccc2Cl)C2(C1)SCC(=O)N2c1nc2ccccc2s1` (stereo not drawn): the TGI in the assay with SNB-75 CNS, in the assay on MCF7 breast, in the assay on HCT-15 colon, in the assay with OVCAR-5 ovarian, with OVCAR-4 ovarian and in the assay on U251 CNS was above 100 µM in each case. Moreover, the TGI in the assay on UACC-257 melanoma, with NCI-H23 lung, in the assay on MDA-MB-435, in the assay with K-562 leukemia, in the assay on T-47D breast and in the assay on COLO 205 colon was above 100 µM throughout. Besides, the TGI in the assay with CAKI-1 renal, with OVCAR-8 ovarian, with MDA-MB-231 breast, with PC-3 prostate and in the assay on BT-549 breast was above 100 µM throughout.

In the case of `Cc1oc2nc(N(C)C)n3c(C)nnc3c2c1C`, the TGI in the assay with SNB-75 CNS, in the assay with MCF7 breast, in the assay on HCT-15 colon, in the assay with OVCAR-5 ovarian, in the assay with OVCAR-4 ovarian and in the assay on U251 CNS was above 100 µM throughout. Also, the TGI in the assay on UACC-257 melanoma, in the assay on NCI-H23 lung, in the assay with MDA-MB-435, with K-562 leukemia, in the assay with T-47D breast and in the assay with COLO 205 colon was above 100 µM each time. The TGI with MOLT-4 leukemia, in the assay on CAKI-1 renal, in the assay on OVCAR-8 ovarian, in the assay on MDA-MB-231 breast, in the assay with CCRF-CEM leukemia and in the assay on BT-549 breast was above 100 µM throughout.

For `C=CCSC1=N/C(=C\c2ccco2)C(=O)N1CC=C`, the TGI in the assay on MCF7 breast, in the assay on HCT-15 colon, with OVCAR-5 ovarian, in the assay on OVCAR-4 ovarian, in the assay with U251 CNS and in the assay with UACC-257 melanoma was above 100 µM in each case. Also, the TGI in the assay on NCI-H23 lung, with MDA-MB-435, in the assay on K-562 leukemia, with T-47D breast, with COLO 205 colon and with MOLT-4 leukemia was above 100 µM each time. The TGI with CAKI-1 renal, with OVCAR-8 ovarian, in the assay on MDA-MB-231 breast, in the assay with PC-3 prostate, with CCRF-CEM leukemia and in the assay with BT-549 breast was above 100 µM each time.

Values taken from PubChem BioAssay (NCI).
